Source: the NIST ThermoML archive (doi:10.1021/acs.jced.9b00696)
Numbers after ± are expanded uncertainties.

Experiments:
[1] = Crystal; DSC
[2] = Molar enthalpy of transition or fusion; settings: Crystal; DSC

Triple point temperature [1]: 485.01 ± 0.81 K
Molar enthalpy of transition or fusion [2]: 30.2 ± 1.4 kJ/mol
SMILES: C[C@]12CCC3=C4CCC(=O)C=C4CC[C@H]3[C@@H]1CC[C@@]2(O)CC#N [dienogest]
